Consider 19 compounds from patent US9421209B2, “Kinase modulators” (Rhizen Pharmaceuticals SA, priority 2009, dated 2016).

One data set has as its target P110β (Homo sapiens, UniProt P42338). Briefly: Fluorescent (HTRF) determination of PI3K enzyme activity, β isoform. In kind it is biochemical. An excerpt:
(§1) Assay 1: Fluorescent determination of PI3Kinase Kinase enzyme activity
(§2) Phosphoinositide 3 kinases (PI3K) belong to a class of lipid kinases that play a critical role in the regulation of several key cellular processes. The PI3K are capable of phosphorylating the 3-hydroxy position of phosphoinositols thereby generating second messengers involved in downstream signalling events. The homogenous time resolved fluorescence (HTRF) assay allows detection of 3,4,5-triphosphate (PIP3) formed as a result of phosphorylation of phosphotidylinositol 4,5-biphosphate (PIP2) by PI3K isoforms such as α, β, γ or δ.
(§3) PI3K isoform activity for α, β, γ or δ was determined using a PI3K human HTRF™ Assay Kit (Millipore, Billerica, Mass.) with modifications. All incubations were carried out at room temperature. Briefly, 0.5 μl of 40× inhibitor (in 100% DMSO) or 100% DMSO were added to each well of a 384-well black plate (Greiner Bio-One, Monroe, N.C.) containing 14.5 μl 1× reaction buffer/PIP2 (10 mM MgCl2, 5 mM DTT, 1.38 μM PIP2) mix with or without enzyme and incubated for 10 min. After the initial incubation, 5 μl/well of 400 μM ATP was added and incubated for an additional 30 minutes. Reaction was terminated by adding 5 μl/well stop solution (Millipore, Billerica, Mass.). Five microliters of detection mix (Millipore, Billerica, Mass.) were then added to each well and was incubated for 6-18 h in the dark. HRTF ratio was measured on a microplate reader (BMG Labtech., Germany) at an excitation wavelength of 337 nm and emission wavelengths of 665 and 620 nm with an integration time of […]. Data were analyzed using Graphpad Prism (Graphpad software; San Diego Calif.) for IC50 determination. Percent inhibition was calculated based on the values for the blank and enzyme controls. The results are provided below in Table 2 & 3.
A general note: In TR-FRET formats the signal depends on donor and acceptor labels being close together.

Another data set addresses P110 δ/Pi3K δ (Homo sapiens, UniProt O00329). Briefly: Fluorescent (HTRF) determination of PI3K enzyme activity, δ isoform. On the set-up: inhibition: dose or concentration left out as unconfirmed. In kind it is biochemical. In short, it runs like this:
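IC50 fitted from percent inhibition relative to blank and enzyme-only wells. Human PI3Kδ converts PIP2 to PIP3 after addition of 400 μM ATP solution, 30 min at room temperature. Product read by time-resolved FRET after stop and 6–18 h dark incubation with detection reagents.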

The next data set deals with P110α (Homo sapiens, UniProt P42336). The data set can be described thus: Fluorescent (HTRF) determination of PI3K enzyme activity, α isoform. The format is biochemical.
P110α, sequence (P42336 whole entry, canonical isoform): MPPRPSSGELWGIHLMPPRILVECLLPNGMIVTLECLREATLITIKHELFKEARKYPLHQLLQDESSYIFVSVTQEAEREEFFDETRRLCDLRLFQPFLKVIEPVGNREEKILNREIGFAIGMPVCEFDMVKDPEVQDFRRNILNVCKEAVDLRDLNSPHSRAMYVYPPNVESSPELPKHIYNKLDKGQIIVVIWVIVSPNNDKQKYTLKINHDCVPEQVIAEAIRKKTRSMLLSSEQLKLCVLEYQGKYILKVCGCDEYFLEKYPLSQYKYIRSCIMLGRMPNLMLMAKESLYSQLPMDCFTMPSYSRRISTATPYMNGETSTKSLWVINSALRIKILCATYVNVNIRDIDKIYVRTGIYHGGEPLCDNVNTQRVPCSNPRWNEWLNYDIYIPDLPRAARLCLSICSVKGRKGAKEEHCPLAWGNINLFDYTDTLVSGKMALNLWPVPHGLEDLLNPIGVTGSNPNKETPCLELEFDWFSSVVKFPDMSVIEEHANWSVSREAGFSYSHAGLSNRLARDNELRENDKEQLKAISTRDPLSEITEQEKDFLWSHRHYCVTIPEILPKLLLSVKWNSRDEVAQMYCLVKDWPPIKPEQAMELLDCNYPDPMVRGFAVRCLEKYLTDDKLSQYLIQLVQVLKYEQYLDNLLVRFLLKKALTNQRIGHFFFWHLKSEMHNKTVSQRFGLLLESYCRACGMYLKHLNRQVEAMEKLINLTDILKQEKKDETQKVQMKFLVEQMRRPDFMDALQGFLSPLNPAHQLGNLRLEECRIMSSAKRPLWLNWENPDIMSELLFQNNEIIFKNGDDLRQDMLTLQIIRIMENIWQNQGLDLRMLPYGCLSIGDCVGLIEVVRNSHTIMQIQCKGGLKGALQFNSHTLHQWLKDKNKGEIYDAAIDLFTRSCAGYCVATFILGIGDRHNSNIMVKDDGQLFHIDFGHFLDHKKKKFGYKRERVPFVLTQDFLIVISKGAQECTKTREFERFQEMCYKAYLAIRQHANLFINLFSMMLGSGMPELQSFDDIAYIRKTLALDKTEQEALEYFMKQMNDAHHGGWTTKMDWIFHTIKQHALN
P110α, sequence (P27986 whole entry partner, canonical isoform): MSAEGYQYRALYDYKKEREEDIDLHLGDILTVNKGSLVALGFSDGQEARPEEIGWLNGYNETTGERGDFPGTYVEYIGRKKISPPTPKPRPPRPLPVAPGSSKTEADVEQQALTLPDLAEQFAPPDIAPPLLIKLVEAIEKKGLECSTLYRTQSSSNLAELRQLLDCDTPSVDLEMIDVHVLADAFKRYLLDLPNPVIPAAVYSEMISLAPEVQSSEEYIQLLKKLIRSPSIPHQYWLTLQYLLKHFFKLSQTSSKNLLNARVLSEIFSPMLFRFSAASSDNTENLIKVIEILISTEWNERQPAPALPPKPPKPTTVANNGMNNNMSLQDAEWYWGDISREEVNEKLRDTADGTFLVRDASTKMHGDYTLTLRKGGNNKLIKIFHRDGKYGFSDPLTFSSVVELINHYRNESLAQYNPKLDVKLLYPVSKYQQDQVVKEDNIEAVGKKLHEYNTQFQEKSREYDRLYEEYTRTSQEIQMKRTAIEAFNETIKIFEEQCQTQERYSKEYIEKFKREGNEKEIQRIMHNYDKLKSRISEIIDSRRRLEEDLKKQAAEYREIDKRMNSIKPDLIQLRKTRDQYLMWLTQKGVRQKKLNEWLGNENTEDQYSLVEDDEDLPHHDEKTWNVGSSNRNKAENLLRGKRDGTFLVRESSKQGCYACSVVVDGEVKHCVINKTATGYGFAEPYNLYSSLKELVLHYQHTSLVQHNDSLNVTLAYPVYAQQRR
From the text: as §1, §2, §3

The mark [1] stands for this setting: read-out: P110 δ/Pi3K δ IC 50 nM.
[2] abbreviates: read-out: P110 δ/ Pi3K δ IC 50 nM.

The structures appear in SMILES notation. Read-outs that look alike come from different tables or passages of the source. Some results are limits rather than exact numbers.

P110β, sequence (P42338 whole entry, canonical isoform): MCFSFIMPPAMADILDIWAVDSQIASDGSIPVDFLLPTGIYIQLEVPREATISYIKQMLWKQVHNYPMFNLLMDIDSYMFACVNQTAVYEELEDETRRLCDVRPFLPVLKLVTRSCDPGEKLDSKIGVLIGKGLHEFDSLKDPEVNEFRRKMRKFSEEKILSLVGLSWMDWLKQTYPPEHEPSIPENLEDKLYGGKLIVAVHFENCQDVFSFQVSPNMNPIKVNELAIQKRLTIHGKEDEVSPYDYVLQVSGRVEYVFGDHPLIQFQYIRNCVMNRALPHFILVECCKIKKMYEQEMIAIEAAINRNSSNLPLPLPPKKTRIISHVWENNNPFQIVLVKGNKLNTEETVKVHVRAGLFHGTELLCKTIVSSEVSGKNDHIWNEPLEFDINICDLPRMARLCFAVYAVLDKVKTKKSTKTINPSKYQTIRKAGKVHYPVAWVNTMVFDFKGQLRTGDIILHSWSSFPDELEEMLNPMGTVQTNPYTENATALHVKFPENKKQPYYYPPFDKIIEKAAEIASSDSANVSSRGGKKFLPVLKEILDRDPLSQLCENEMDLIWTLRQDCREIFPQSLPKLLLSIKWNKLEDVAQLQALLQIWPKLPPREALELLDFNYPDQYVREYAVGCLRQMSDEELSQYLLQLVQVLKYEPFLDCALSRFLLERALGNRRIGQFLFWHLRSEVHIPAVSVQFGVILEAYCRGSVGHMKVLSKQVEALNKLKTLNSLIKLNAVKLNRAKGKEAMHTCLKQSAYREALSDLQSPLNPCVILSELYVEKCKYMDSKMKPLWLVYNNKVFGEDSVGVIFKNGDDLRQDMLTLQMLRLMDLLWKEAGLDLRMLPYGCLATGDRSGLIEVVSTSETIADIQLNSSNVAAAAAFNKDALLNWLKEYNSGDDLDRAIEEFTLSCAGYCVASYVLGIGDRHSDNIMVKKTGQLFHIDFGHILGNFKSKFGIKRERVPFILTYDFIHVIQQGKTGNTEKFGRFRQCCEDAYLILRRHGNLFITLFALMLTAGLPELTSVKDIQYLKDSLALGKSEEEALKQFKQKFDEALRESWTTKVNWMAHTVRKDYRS
P110β, sequence (P27986 whole entry partner, canonical isoform): as the sequence (P27986 whole entry partner, canonical isoform) above
P110 δ/Pi3K δ, sequence (O00329 whole entry, canonical isoform): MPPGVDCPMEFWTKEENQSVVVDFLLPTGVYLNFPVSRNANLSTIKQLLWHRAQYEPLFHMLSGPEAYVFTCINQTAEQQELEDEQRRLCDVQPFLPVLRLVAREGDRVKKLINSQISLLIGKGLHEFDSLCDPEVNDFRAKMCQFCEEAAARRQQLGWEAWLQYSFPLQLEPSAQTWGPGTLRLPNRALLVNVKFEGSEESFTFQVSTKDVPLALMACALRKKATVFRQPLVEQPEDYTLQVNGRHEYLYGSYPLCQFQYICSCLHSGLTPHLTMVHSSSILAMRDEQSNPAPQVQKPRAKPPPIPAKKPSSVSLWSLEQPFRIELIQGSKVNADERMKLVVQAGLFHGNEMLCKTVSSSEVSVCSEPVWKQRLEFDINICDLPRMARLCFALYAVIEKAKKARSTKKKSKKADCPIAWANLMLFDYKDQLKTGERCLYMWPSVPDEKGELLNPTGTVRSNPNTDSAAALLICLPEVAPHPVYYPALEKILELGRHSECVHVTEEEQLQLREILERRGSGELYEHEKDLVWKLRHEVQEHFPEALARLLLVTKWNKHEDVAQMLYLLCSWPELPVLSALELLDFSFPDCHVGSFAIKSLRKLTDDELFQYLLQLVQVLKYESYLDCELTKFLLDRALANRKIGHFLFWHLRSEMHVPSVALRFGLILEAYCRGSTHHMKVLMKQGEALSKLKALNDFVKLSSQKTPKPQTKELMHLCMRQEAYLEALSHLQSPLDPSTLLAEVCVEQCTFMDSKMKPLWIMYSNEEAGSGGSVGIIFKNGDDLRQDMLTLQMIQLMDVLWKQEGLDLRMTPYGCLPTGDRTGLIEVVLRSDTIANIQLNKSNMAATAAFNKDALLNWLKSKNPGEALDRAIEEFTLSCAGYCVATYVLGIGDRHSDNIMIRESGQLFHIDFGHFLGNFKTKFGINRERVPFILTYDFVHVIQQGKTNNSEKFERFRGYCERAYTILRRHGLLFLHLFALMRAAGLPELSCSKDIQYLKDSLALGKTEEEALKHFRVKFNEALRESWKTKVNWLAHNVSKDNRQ
P110 δ/Pi3K δ, sequence (P27986 whole entry partner, canonical isoform): as the sequence (P27986 whole entry partner, canonical isoform) above

Broadly, the inhibition is the drop in the measured response relative to a control, in per cent. As usually defined, the melting point is the temperature of the solid-liquid transition. Regarding `Nc1ncnc2c1ncn2Cc1oc2ccc(Br)cc2c(=O)c1-c1ccccc1` [Example 1, 2-[(6-Amino-9H-purin-9-yl)methyl]-6-bromo-3-phenyl-4H-chromen-4-one], the melting point lay in the range of 207 to 209 °C. Besides, the inhibition at 1 µM on P110β is below 25%. Further, the inhibition at 1 µM at P110 δ/Pi3K δ is below 50%. Also, on P110 δ/Pi3K δ (setting [1]), the IC50 is below 250 nM. This compound registered an inhibition at 1 µM on P110α below 25%.
`O=c1c(-c2ccccc2)c(Cn2cnc3c(Cl)ncnc32)oc2ccc(Br)cc12` [Example 10, 6-Bromo-2-[(6-chloro-9H-purin-9-yl)methyl]-3-phenyl-4H-chromen-4-one] displayed a melting point of 234 to 236 °C. The compound further yielded an inhibition at 1 µM at P110β below 25%. Moreover, the inhibition at 1 µM against P110α is below 25%.
`CC(c1oc2ccccc2c(=O)c1-c1ccccc1)n1cnc2c(N)ncnc21` (centres unmarked) [Example 23, 2-(1-(6-Amino-9H-purin-9-yl)ethyl)-3-phenyl-4H-chromen-4-one]: the melting point is 254 to 257 °C. The inhibition at 1 µM on P110β was below 25%. On P110 δ/Pi3K δ, this compound came in with an inhibition at 1 µM of 50 to 100%. At P110 δ/Pi3K δ (setting [1]), the IC50 is below 250 nM. Also, the inhibition at 1 µM at P110α is below 25%.
`C[C@H](Nc1ncnc2[nH]cnc12)c1oc2ccc(F)cc2c(=O)c1-c1ccccc1` [Example 57, (S)-2-(1-(9H-purin-6-ylamino)ethyl)-6-fluoro-3-phenyl-4H-chromen-4-one]: the melting point fell in the range of 196 to 198 °C. The compound also had an inhibition at 1 µM against P110β of 25 to 50%. The inhibition at 1 µM against P110 δ/Pi3K δ is 50 to 100%. Besides, the IC50 at P110 δ/Pi3K δ (setting [1]) is below 250 nM. Moreover, the inhibition at 1 µM on P110α is below 25%.
As for `COc1ccc(-c2nn(C(C)c3oc4ccccc4c(=O)c3-c3cccc(F)c3)c3ncnc(N)c23)cc1F` (centres unmarked) [Example 84, 2-(1-(4-amino-3-(3-fluoro-4-methoxyphenyl)-1H-pyrazolo[3,4-d]pyrimidin-1-yl)ethyl)-3-(3-fluorophenyl)-4H-chromen-4-one], the melting point fell in the range of 222 to 224 °C. Also, at P110β, the inhibition at 1 µM is below 25%. At P110 δ/Pi3K δ, this compound had an inhibition of 50 to 100%. Further, the IC50 on P110 δ/Pi3K δ (setting [2]) was below 250 nM. At P110α, the inhibition at 1 µM is below 25%.
Turning to `CC(c1oc2ccccc2c(=O)c1-c1cccc(F)c1)n1nc(-c2ccc(O)c(F)c2)c2c(N)ncnc21` (centres unmarked) [Example 85, 2-(1-(4-amino-3-(3-fluoro-4-hydroxyphenyl)-1H-pyrazolo[3,4-d]pyrimidin-1-yl)ethyl)-3-(3-fluorophenyl)-4H-chromen-4-one], the melting point was in the range of 244 to 247 °C. Also, at P110β, the inhibition at 1 µM lay within 25 to 50%. The same compound yielded an inhibition against P110 δ/Pi3K δ of 50 to 100%. Moreover, the inhibition at 1 µM on P110α was in the range of 25 to 50%.
Compound `COc1ncc(-c2nn(C(C)c3oc4ccccc4c(=O)c3-c3cccc(F)c3)c3ncnc(N)c23)cn1` (centres unmarked) [Example 112, 2-(1-(4-amino-3-(2-methoxypyrimidin-5-yl)-1H-pyrazolo[3,4-d]pyrimidin-1-yl)ethyl)-3-(3-fluorophenyl)-4H-chromen-4-one] yielded a melting point of 224 to 227 °C. At P110β, this compound showed an inhibition at 1 µM below 25%. The compound further registered an inhibition on P110 δ/Pi3K δ below 50%. On P110α, the inhibition at 1 µM was below 25%.
On to `Cc1nc2cc(-c3nn(C(C)c4oc5ccccc5c(=O)c4-c4cccc(F)c4)c4ncnc(N)c34)ccc2[nH]1` (centres unmarked) [Example 115, 2-(1-(4-amino-3-(2-methyl-1H-benzo[d]imidazol-5-yl)-1H-pyrazolo[3,4-d]pyrimidin-1-yl)ethyl)-3-(3-fluorophenyl)-4H-chromen-4-one], for which the melting point is 154 to 156 °C. The compound also registered an inhibition at 1 µM against P110β below 25%. The same compound had an inhibition on P110 δ/Pi3K δ of 50 to 100%. In addition, the IC50 at P110 δ/Pi3K δ (setting [2]) was below 250 nM. Moreover, the inhibition at 1 µM at P110α is below 25%.
The compound `CCC(c1oc2ccccc2c(=O)c1-c1cccc(F)c1)n1nc(-c2ccc3c(C)n[nH]c3c2)c2c(N)ncnc21` (centres unmarked) [Example 116, 2-(1-(4-amino-3-(3-methyl-1H-indazol-6-yl)-1H-pyrazolo[3,4-d]pyrimidin-1-yl)propyl)-3-(3-fluorophenyl)-4H-chromen-4-one] yielded a melting point of 268 to 270 °C. This compound gave an inhibition at 1 µM against P110β below 25%. This compound gave an inhibition against P110 δ/Pi3K δ of 50 to 100%. In addition, at P110α, the inhibition at 1 µM was below 25%.
Compound `Nc1ncnc2c1ncn2Cc1oc2ccc(F)cc2c(=O)c1-c1ccccc1` [Example 118, 2-((6-amino-9H-purin-9-yl)methyl)-6-fluoro-3-phenyl-4H-chromen-4-one] gave a melting point of 207 to 209 °C. This compound gave an inhibition at 1 µM at P110β of 25 to 50%. In addition, the inhibition against P110 δ/Pi3K δ was below 50%. On P110α, this compound returned an inhibition at 1 µM below 25%.
In turn, `Nc1ncnc2c1ncn2Cc1oc2ccc(F)cc2c(=O)c1-c1cccc(F)c1` [Example 119, 2-((6-amino-9H-purin-9-yl)methyl)-6-fluoro-3-(3-fluorophenyl)-4H-chromen-4-one] yielded a melting point of 180 to 183 °C. The compound further had an inhibition at 1 µM on P110β below 25%. Moreover, on P110 δ/Pi3K δ, the inhibition was below 50%. Besides, the inhibition at 1 µM at P110α is below 25%.
For the compound `COc1cc(F)cc(-c2nn(Cc3oc4ccc(F)cc4c(=O)c3-c3cccc(F)c3)c3ncnc(N)c23)c1` [Example 120, 2-((4-amino-3-(3-fluoro-5-methoxyphenyl)-1H-pyrazolo[3,4-d]pyrimidin-1-yl)methyl)-6-fluoro-3-(3-fluorophenyl)-4H-chromen-4-one], the inhibition at 1 µM on P110β and at P110α was below 25% in each case.
For `C[C@@H](Nc1ncnc2[nH]cnc12)c1oc2ccc(F)cc2c(=O)c1-c1cccc(F)c1` [Example 124, (R)-2-(1-(9H-purin-6-ylamino)ethyl)-6-fluoro-3-(3-fluorophenyl)-4H-chromen-4-one], the melting point lay within 194 to 197 °C. Also, the inhibition at 1 µM at P110β was below 25%. The inhibition at P110 δ/Pi3K δ was below 50%. For the same compound, the inhibition at 1 µM against P110α was below 25%.
For the compound `Nc1ncnc2c1c(-c1cn[nH]c1)nn2Cc1oc2ccc(F)cc2c(=O)c1-c1ccccc1` [Example 125, 2-((4-amino-3-(1H-pyrazol-4-yl)-1H-pyrazolo[3,4-d]pyrimidin-1-yl)methyl)-6-fluoro-3-phenyl-4H-chromen-4-one], the melting point lay within 211 to 214 °C. Also, the inhibition at 1 µM at P110β was below 25%. Also, at P110 δ/Pi3K δ, the inhibition is below 50%. In addition, on P110α, the inhibition at 1 µM is below 25%.
The compound `COc1cc(OC)cc(-c2nn(C(C)c3oc4ccccc4c(=O)c3-c3cccc(F)c3)c3ncnc(N)c23)c1` (centres unmarked) [Example 130, 2-(1-(4-amino-3-(3,5-dimethoxyphenyl)-1H-pyrazolo[3,4-d]pyrimidin-1-yl)ethyl)-3-(3-fluorophenyl)-4H-chromen-4-one] yielded a melting point of 224 to 227 °C. The compound further displayed an inhibition at 1 µM against P110β below 25%. The same compound yielded an inhibition on P110 δ/Pi3K δ below 50%. The compound also yielded an inhibition at 1 µM on P110α below 25%.
The compound `Cc1noc(C)c1-c1nn(C(C)c2oc3ccccc3c(=O)c2-c2cccc(F)c2)c2ncnc(N)c12` (centres unmarked) [Example 153, 2-(1-(4-amino-3-(3,5-dimethylisoxazol-4-yl)-1H-pyrazolo[3,4-d]pyrimidin-1-yl)ethyl)-3-(3-fluorophenyl)-4H-chromen-4-one] gave a melting point of 218 to 222 °C. Moreover, the inhibition at 1 µM on P110β was below 25%. The inhibition against P110 δ/Pi3K δ is below 50%.
The matching figures for `CCCOc1cccc(-c2nn(C(C)c3oc4ccccc4c(=O)c3-c3cccc(F)c3)c3ncnc(N)c23)c1` (centres unmarked) [Example 154, 2-(1-(4-amino-3-(3-propoxyphenyl)-1H-pyrazolo[3,4-d]pyrimidin-1-yl)ethyl)-3-(3-fluorophenyl)-4H-chromen-4-one]: 178 to 182 °C, below 25% and below 50%.
The matching figures for `CC(c1oc2ccccc2c(=O)c1-c1cccc(F)c1)n1nc(-c2ccco2)c2c(N)ncnc21` (centres unmarked) [Example 155, 2-(1-(4-amino-3-(furan-2-yl)-1H-pyrazolo[3,4-d]pyrimidin-1-yl)ethyl)-3-(3-fluorophenyl)-4H-chromen-4-one]: 234 to 236 °C, below 25% and 50 to 100%.
In the same order, the values of `CCOc1ccc(-c2nn(C(C)c3oc4ccccc4c(=O)c3-c3cccc(F)c3)c3ncnc(N)c23)cc1` (centres unmarked) [Example 156, 2-(1-(4-amino-3-(4-ethoxyphenyl)-1H-pyrazolo[3,4-d]pyrimidin-1-yl)ethyl)-3-(3-fluorophenyl)-4H-chromen-4-one] are 229 to 232 °C, 25 to 50% and below 50%.
